By IC50 is commonly meant the midpoint of a concentration-inhibition curve.

The record followed here is patent publication US20260355331A1, “CEREBLON DEGRADER CONJUGATES, AND USES THEREOF” (GENENTECH, INC., priority 2022, published 2026).

For one data set, the system named is KPL-4 cells (HER2+). The data set can be described thus: cell proliferation assay (CellTiter-Glo), KPL-4. The class given is cell-based. The conditions noted are these: KPL4, 120 h; cereblon degrader compound, 5 days; read-out: IC50 anti-proliferative. An excerpt:
(§1) The CellTiter-Glo® Luminescent Cell Viability Assay is a commercially available (Promega Corp., Madison, WI), homogeneous assay method based on the recombinant expression of Coleoptera luciferase (U.S. Pat. Nos. 5,583,024; 5,674,713; 5,700,670). This cell proliferation assay determines the number of viable cells in culture based on quantitation of the ATP present, an indicator of metabolically active cells (Crouch et al (1993) J. Immunol. Meth. 160:81-88; U.S. Pat. No. 6,602,677). The CellTiter-Glo® Assay was conducted in 96 well format, making it amenable to automated high-throughput screening (HTS) (Cree et al (1995) AntiCancer Drugs 6:398-404). […] Data can be recorded by luminometer or CCD camera imaging device. The luminescence output is expressed as relative light units (RLU). […]
(§2) Efficacy of the cDAC was measured by a cell proliferation assay employing the following protocol ([…] GLO™ Luminescent Cell Viability Assay, Promega Corp. Technical Bulletin TB288; Mendoza et al. (2002) Cancer Res. 62:5485-5488): • 1. […] The plate was incubated at room temperature for 5 minutes to stabilize the luminescence signal. • 8. Luminescence was recorded and reported in graphs as % activity where RLU (relative luminescence units) was normalized to controls (no antibody control minus no cell control). […]
(In general: ATP-based viability assays read luminescence as a measure of living cells.)

The subject of another data set is SK-BR-3 cells (HER2+). The data set is described as follows: cell proliferation assay (CellTiter-Glo), SK-BR-3. The class given is cell-based. The conditions noted are these: Homo sapiens, SK-BR-3, 120 h; cereblon degrader compound, 5 days; read-out: IC50 anti-proliferative.
From the text: as §1, §2

Data set [1] can be described thus: reductive cleavage / release of lenalidomide in a model study. Particulars: reduction. In kind it is in vitro ADME. An excerpt: The nitro group of para-nitrobenzyloxymethyl lenalidomide cDLI-7 was reduced to amine in a model study. […] The disulfide group of para-nitropyridyl disulfidemethyl lenalidomide cDLI-8 was reduced in a model study.
Data set [2] in a line: cDLI stability in whole blood. In kind it is in vitro ADME.
A short description of data set [3]: stability of cDLI under conjugation conditions. The conditions noted are these: pH 8.5, 3 and 10 equivalents, 3 hours and overnight; LC/MS. In kind it is physicochemical.
Data set [4] can be described thus: release of lenalidomide and hydrolysis of sulfonyl-thio cDLI. The class given is in vitro ADME. Particulars: with and without methyl adjacent to the glutarimide nitrogen.
Another data set concerns proteases. The data set is described as follows: protease cleavage of cDAC made with cDLI. The conditions noted are these: presence of proteases; cDAC of cDLI-6 variants. In kind it is in vitro ADME.

`Cn1cc2c3c(c[nH]c3c1=O)CN(c1ncc(F)cc1F)c1cc(C(=O)NCCCCCCCNc3cccc4c3CN(C3CCC(=O)NC3=O)C4=O)c(CS(C)(=O)=O)cc1-2` (stereo not drawn) [cD-5, 4-(3,5-difluoropyridin-2-yl)-N-(7-((2-(2,6-dioxopiperidin-3-yl)-1-oxoisoindolin-4-yl)amino)heptyl)-10-methyl-7-((methylsulfonyl)methyl)-11-oxo-3,4,10,11-tetrahydro-1H-1,4,10-triazadibenzo[cd,f]azulene-6-carboxamide]: the IC50 was found to be 0.65 nM in the data set with KPL-4 cells (HER2+) and 0.41 nM with SK-BR-3 cells (HER2+).

With `O=C1CCC(N2Cc3ccccc3C2=O)C(=O)N1COCc1ccc([N+](=O)[O-])cc1` (stereo not drawn) [cDLI-7, 1-(((4-nitrobenzyl)oxy)methyl)-3-(1-oxoisoindolin-2-yl)piperidine-2,6-dione], the “cleavage to release lenalidomide (in words)” value in data set [1] is listed as “No cleavage of the para-aminobenzyloxy group was observed”.

Regarding `O=C1CCC(N2Cc3ccccc3C2=O)C(=O)N1CSSc1ccc([N+](=O)[O-])cn1` (stereo not drawn) [cDLI-8, 1-(((5-nitropyridin-2-yl)disulfaneyl)methyl)-3-(1-oxoisoindolin-2-yl)piperidine-2,6-dione], the “cleavage to release lenalidomide (in words)” value in data set [1] is “No cleavage of the disulfide group was observed”.

With `CC(CN1C(=O)C=CC1=O)SN1C(=O)CCC(N2Cc3ccccc3C2=O)C1=O` (stereo not drawn) [cDLI-5, 1-((1-(2,5-dioxo-2,5-dihydro-1H-pyrrol-1-yl)propan-2-yl)thio)-3-(1-oxoisoindolin-2-yl)piperidine-2,6-dione], in data set [2], the “stability in whole blood (in words)” value was “not stable in whole blood”.

Consider `CC(OC(=O)OCN1C(=O)CCC(N2Cc3ccccc3C2=O)C1=O)C(C)SS(C)(=O)=O` (stereo not drawn) [cDLI-9, S-(3-((((2,6-dioxo-3-(1-oxoisoindolin-2-yl)piperidin-1-yl)methoxy)carbonyl)oxy)butan-2-yl)methanesulfonothioate], for which the “stability under conjugation conditions (in words)” value in data set [3] is given as “Hydrolysis of the carbonate bond was observed”. In addition, in data set [4], the “release of lenalidomide (in words)” value was “cleaved to release detectable lenalidomide” and the “stability (in words)” value was “not stable, generating hydrolysis products”.

Consider `CC(C)(C)OC(=O)Nc1cccc2c1CN(C1CCC(=O)N(C(=O)OCC(C)(C)SS(C)(=O)=O)C1=O)C2=O` (stereo not drawn) [cDLI-1, 2-methyl-2-((methylsulfonyl)thio)propyl 3-(4-((tert-butoxycarbonyl)amino)-1-oxoisoindolin-2-yl)-2,6-dioxopiperidine-1-carboxylate], for which the “stability under conjugation conditions (in words)” value in data set [3] is recorded as “too unstable under these conditions for conjugation”.

For the compound `CC(C)(CSS(C)(=O)=O)OC(=O)OCN1C(=O)CCC(N2Cc3ccccc3C2=O)C1=O` (stereo not drawn) [cDLI-10, S-(2-((((2,6-dioxo-3-(1-oxoisoindolin-2-yl)piperidin-1-yl)methoxy)carbonyl)oxy)-2-methylpropyl) methanesulfonothioate], the “stability under conjugation conditions (in words)” value in data set [3] is “Hydrolysis of the carbonate bond was observed”.

Turning to “6-(2,5-dioxo-2,5-dihydro-1H-pyrrol-1-yl)-N-((2S)-1-(((2S)-1-((4-((2,6-dioxo-3-(1-oxoisoindolin-2-yl)piperidin-1-yl)methyl)phenyl)amino)-1-oxopropan-2-yl)amino)-3-methyl-1-oxobutan-2-yl)hexanamide [cDLI-6]”, the “cleavage by proteases (in words)” value in the data set with proteases was “failed to cleave in the presence of proteases”.

As to `O=C1C=CC(=O)N1CCSN1C(=O)CCC(N2Cc3ccccc3C2=O)C1=O` (stereo not drawn) [cDLI-4, 1-((2-(2,5-dioxo-2,5-dihydro-1H-pyrrol-1-yl)ethyl)thio)-3-(1-oxoisoindolin-2-yl)piperidine-2,6-dione], the “stability in whole blood (in words)” value in data set [2] is given as “not stable in whole blood”.
